US10112929B2, “Lactams as inhibitors of rock” (BRISTOL-MYERS SQUIBB COMPANY, priority 2015, dated 2018)
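Further: rho kinase enzyme reaction halted with EDTA, phospho- and non-phospho peptide separated for read-out, kinase activity inhibition derived across a dose-response series, DMSO under 2%.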

These compounds were tested against ROCK2 (Homo sapiens (Human), UniProt O75116) (assay: biochemical).
ROCK2, sequence (O75116 whole entry, species assumed): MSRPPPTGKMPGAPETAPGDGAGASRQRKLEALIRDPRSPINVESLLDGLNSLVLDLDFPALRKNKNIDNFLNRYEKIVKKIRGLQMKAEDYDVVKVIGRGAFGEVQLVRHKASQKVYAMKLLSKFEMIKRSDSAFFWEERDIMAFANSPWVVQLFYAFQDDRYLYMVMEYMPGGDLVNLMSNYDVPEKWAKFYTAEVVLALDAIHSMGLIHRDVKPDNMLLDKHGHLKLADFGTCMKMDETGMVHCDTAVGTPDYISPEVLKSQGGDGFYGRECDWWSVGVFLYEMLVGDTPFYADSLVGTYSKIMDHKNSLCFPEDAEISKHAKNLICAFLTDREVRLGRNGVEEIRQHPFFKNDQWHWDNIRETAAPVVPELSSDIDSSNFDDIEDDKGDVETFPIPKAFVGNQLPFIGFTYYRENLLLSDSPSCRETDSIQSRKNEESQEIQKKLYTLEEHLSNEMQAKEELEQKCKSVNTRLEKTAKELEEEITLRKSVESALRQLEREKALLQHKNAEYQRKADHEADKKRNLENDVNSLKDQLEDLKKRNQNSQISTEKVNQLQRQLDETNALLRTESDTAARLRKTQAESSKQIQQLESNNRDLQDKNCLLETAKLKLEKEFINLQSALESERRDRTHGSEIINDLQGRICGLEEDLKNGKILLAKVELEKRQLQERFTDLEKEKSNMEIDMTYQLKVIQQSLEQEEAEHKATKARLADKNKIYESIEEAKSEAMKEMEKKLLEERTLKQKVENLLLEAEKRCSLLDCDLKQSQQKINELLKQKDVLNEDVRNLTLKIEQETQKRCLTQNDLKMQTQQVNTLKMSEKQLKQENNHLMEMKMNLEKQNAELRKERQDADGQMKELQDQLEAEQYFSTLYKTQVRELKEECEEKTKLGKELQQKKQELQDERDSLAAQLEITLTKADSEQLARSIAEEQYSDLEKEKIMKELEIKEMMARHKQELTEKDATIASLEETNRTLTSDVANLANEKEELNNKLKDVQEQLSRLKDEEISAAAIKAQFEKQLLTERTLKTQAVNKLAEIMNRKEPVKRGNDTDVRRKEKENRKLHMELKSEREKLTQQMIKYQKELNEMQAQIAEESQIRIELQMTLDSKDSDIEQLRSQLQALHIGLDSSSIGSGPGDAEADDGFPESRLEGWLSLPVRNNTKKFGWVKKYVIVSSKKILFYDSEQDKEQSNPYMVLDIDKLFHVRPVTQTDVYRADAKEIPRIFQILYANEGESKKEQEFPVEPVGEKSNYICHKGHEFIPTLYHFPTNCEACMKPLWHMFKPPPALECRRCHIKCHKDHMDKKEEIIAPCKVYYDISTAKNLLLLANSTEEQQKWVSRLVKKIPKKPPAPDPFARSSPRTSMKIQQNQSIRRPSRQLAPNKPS
COc1nc(N2CCC(Nc3ccccc3F)C2=O)ccc1-c1cn[nH]c1 (racemic) [Example 224, 3-((2-fluorophenyl)amino)-1-(6-methoxy-5-(1H-pyrazol-4-yl)pyridin-2-yl)pyrrolidin-2-one] showed an IC50 of under 10 nM.
In the case of COc1nc(N2CCC(N3CCOc4ccccc43)C2=O)ccc1-c1cn[nH]c1 (single isomer, unassigned) [Example 230, 3-(2H-benzo[b][1,4]oxazin-4(3H)-yl)-1-(6-methoxy-5-(1H-pyrazol-4-yl)pyridin-2-yl)pyrrolidin-2-one], the IC50 is reported as under 10 nM.
For COc1nc(N2CCC(Nc3ccc(F)c(OCC4CC4)c3)C2=O)ccc1-c1cn[nH]c1 (single isomer, unassigned) [Example 217, 3-((3-(cyclopropylmethoxy)-4-fluorophenyl)amino)-1-(6-methoxy-5-(1H-pyrazol-4-yl)pyridin-2-yl)pyrrolidin-2-one], the IC50 was 10 to 100 nM.
Compound O=C1C(Oc2ccccc2)CCN1c1ccc(-c2cn[nH]c2)cc1 (stereo not drawn) [Example 64, 1-(4-(1H-pyrazol-4-yl)phenyl)-3-phenoxypyrrolidin-2-one] has an IC50 of 10 to 100 nM.
O=C1C(c2ccccc2)CCN1c1ccc(-c2cn[nH]c2)cc1 (stereo not drawn) [Example 101, 1-(4-(1H-pyrazol-4-yl)phenyl)-3-phenylpyrrolidin-2-one] was tested, and the IC50 was 10 to 100 nM.
With COc1ccc(F)cc1NC1CCN(c2ccc(-c3cn[nH]c3)cc2)C1=O (stereo not drawn) [Example 5, 1-(4-(1H-pyrazol-4-yl)phenyl)-3-((5-fluoro-2-methoxyphenyl)amino)pyrrolidin-2-one] the IC50 was 10 to 100 nM.
Compound COc1c(F)cccc1NC1CCN(c2ccc(-c3cn[nH]c3)cn2)C1=O (single isomer, unassigned) [Example 89, 1-(5-(1H-pyrazol-4-yl)pyridin-2-yl)-3-((3-fluoro-2-methoxyphenyl)amino) pyrrolidin-2-one] has an IC50 of under 10 nM.
Work on COc1c(F)cccc1NC1CCN(c2ccc(-c3cn[nH]c3)cn2)C1=O (single isomer, unassigned) [Example 90, 1-(5-(1H-pyrazol-4-yl)pyridin-2-yl)-3-((3-fluoro-2-methoxyphenyl)amino)pyrrolidin-2-one] yielded an IC50 of 100 to 2200 nM.
COc1cccc(NC2CCN(c3ccc(-c4cn[nH]c4)c(Cl)c3)C2=O)c1 (single isomer, unassigned) [Example 165, 1-(3-chloro-4-(1H-pyrazo1-4-yl)phenyl)-3 ((3-methoxyphenyl)amino)pyrrolidin-2-one] showed an IC50 of 10 to 100 nM.
COc1cc(F)cc(NC2CCN(c3ccc(-c4cn[nH]c4)c(C)n3)C2=O)c1 (single isomer, unassigned) [Example 193, 3-((3-fluoro-5-methoxyphenyl)amino)-1-(6-methyl-5-(1H-pyrazol-4-yl)pyridin-2-yl)pyrrolidin-2-one] was tested, and the IC50 was under 10 nM.
With O=C1C(Nc2cccc(F)c2)CCN1c1ccc(-c2cn[nH]c2)c(F)c1 (single isomer, unassigned) [Example 47, 1-(3-fluoro-4-(1H-pyrazol-4-yl)phenyl)-3-((3-fluorophenyl)amino)pyrrolidin-2-one] the IC50 was under 10 nM.
Compound COc1cccc(NC2CCN(c3cc(C)c(-c4cn[nH]c4)cn3)C2=O)c1 (racemic) [Example 200, 3-((3-methoxyphenyl)amino)-1-(4-methyl-5-(1H-pyrazol-4-yl)pyridin-2-yl)pyrrolidin-2-one] has an IC50 of 100 to 2200 nM.
For COc1cccc(NC2CCN(c3ccc(-c4cn[nH]c4)c(F)c3)C2=O)c1 (single isomer, unassigned) [Example 45, 1-(3-fluoro-4-(1H-pyrazol-4-yl)phenyl)-3-((3-methoxyphenyl)amino)pyrrolidin-2-one], the IC50 was under 10 nM.
CCc1cc(N2CCC(Nc3cccc(OCC4CC4)c3)C2=O)ccc1-c1cn[nH]c1 (single isomer, unassigned) [Example 248, 3-((3-(cyclopropylmethoxy)phenyl)amino)-1-(3-ethyl-4-(1H-pyrazol-4-yl)phenyl)pyrrolidin-2-one] showed an IC50 of 100 to 2200 nM.
With COc1c(F)cccc1NC1CCN(c2ccc(-c3cn[nH]c3)cc2)C1=O (single isomer, unassigned) [Example 16, 1-(4-(1H-pyrazol-4-yl)phenyl)-3-((3-fluoro-2-methoxyphenyl)amino)pyrrolidin-2-one] the IC50 was 100 to 2200 nM.
CNc1nc(N2CCC(Nc3cc(F)cc(OC)c3)C2=O)ccc1-c1cn[nH]c1 (single isomer, unassigned) [Example 252, 3-((3-fluoro-5-methoxyphenyl)amino)-1-(6-(methylamino)-5-(1H-pyrazol-4-yl)pyridin-2-yl)pyrrolidin-2-one] showed an IC50 of under 10 nM.
COc1cc(F)cc(OC2CCN(c3ccc(-c4cn[nH]c4)c(OC)n3)C2=O)c1 (single isomer, unassigned) [Example 172, 3-(3-fluoro-5-methoxyphenoxy)-1-(6-methoxy-5-(1H-pyrazol-4-yl)pyridin-2-yl)pyrrolidin-2-one] showed an IC50 of 10 to 100 nM.
In the case of COc1c(F)cccc1NC1CCN(c2ccc(-c3cn[nH]c3)c(OC(F)F)c2)C1=O (single isomer, unassigned) [Example 33, 1-(3-(difluoromethoxy)-4-(1H-pyrazol-4-yl)phenyl)-3-((3-fluoro-2-methoxyphenl)amino)pyrrolidin-2-one], the IC50 is reported as 10 to 100 nM.
COc1nc(N2CCC(Nc3cccc(S(=O)(=O)N4CCOCC4)c3)C2=O)ccc1-c1cn[nH]c1 (racemic) [Example 264, 1-(6-methoxy-5-(1H-pyrazol-4-yl)pyridin-2-yl)-3-((3-(morpholinosulfonyl)phenyl)amino)pyrrolidin-2-one] showed an IC50 of 10 to 100 nM.
COc1ccc(F)c(NC2CCN(c3ccc(-c4cn[nH]c4)c(F)c3)C2=O)c1 (single isomer, unassigned) [Example 334, 1-(3-fluoro-4-(1H-pyrazol-4-yl)phenyl)-3-((2-fluoro-5-methoxyphenyl)amino) pyrrolidin-2-one] gave an IC50 of 10 to 100 nM.
COc1cccc(NC2CCN(c3ccc(-c4ccncc4F)c(OC)n3)C2=O)c1 (stereo not drawn) [Example 118, 1-(3′-Fluoro-2-methoxy-[3,4′-bipyridin]-6-yl)-3-((3-methoxyphenyl)amino) pyrrolidin-2-one] showed an IC50 of under 10 nM.
In the case of CCc1nc(N2CCC(Nc3cc(F)cc(OC)c3)C2=O)ccc1-c1cn[nH]c1 (single isomer, unassigned) [Example 316, 1-(6-ethyl-5-(1H-pyrazol-4-yl)pyridin-2-yl)-3-((3-fluoro-5-methoxyphenyl)amino) pyrrolidin-2-one], the IC50 is reported as under 10 nM.
Compound CCc1nc(N2CCC(Nc3cc(F)cc(OC)c3)C2=O)ccc1-c1cn[nH]c1 (single isomer, unassigned) [Example 315, 1-(6-ethyl-5-(1H-pyrazol-4-yl)pyridin-2-yl)-3-((3-fluoro-5-methoxyphenyl)amino) pyrrolidin-2-one] has an IC50 of 10 to 100 nM.
In the case of O=C1C(Nc2cccnc2)CCN1c1ccc(-c2cn[nH]c2)cc1 (stereo not drawn) [Example 9, 1-(4-(1H-pyrazol-4-yl)phenyl)-3-(pyridin-3-ylamino)pyrrolidin-2-one], the IC50 is reported as 10 to 100 nM.
COc1cccc(NC2CCN(c3ccc(-c4cn[nH]c4)c(OC)n3)C2=O)c1C (stereo not drawn) [Example 117, 3-((3-Methoxy-2-methylphenyl)amino)-1-(6-methoxy-5-(1H-pyrazol-4-yl)pyridin-2-yl)pyrrolidin-2-one] was tested, and the IC50 was under 10 nM.
For COc1nc(N2CCC(Nc3cccc(-c4cnco4)c3)C2=O)ccc1-c1cn[nH]c1 (racemic) [Example 262, 1-(6-methoxy-5-(1H-pyrazol-4-yl)pyridin-2-yl)-3-((3-(oxazol-5-yl)phenyl)amino) pyrrolidin-2-one], the IC50 was 10 to 100 nM.
COc1cc(N2CCC(Nc3ccccc3)C2=O)ccc1-c1cn[nH]c1 (stereo not drawn) [Example 67, 1-(3-methoxy-4-(1H-pyrazol-4-yl)phenyl)-3-(phenylamino)pyrrolidin-2-one] gave an IC50 of under 10 nM.
For COc1ccc(Cl)c(NC2CCN(c3ccc(-c4cn[nH]c4)c(OC)n3)C2=O)c1 (racemic) [Example 261, 3-((2-chloro-5-methoxyphenyl)amino)-1-(6-methoxy-5-(1H-pyrazol-4-yl)pyridin-2-yl)pyrrolidin-2-one], the IC50 was 10 to 100 nM.
For COc1cccc(CC2CCN(c3ccc(-c4cn[nH]c4)cc3)C2=O)c1 (stereo not drawn) [Example 93, 1-(4-(1H-pyrazol-4-yl)phenyl)-3-(3-methoxybenzyl)pyrrolidin-2-one], the IC50 was 100 to 2200 nM.
For COc1cccc(NC2CCN(c3ccc(-c4cn[nH]c4)c(OC(F)F)c3)C2=O)c1 (single isomer, unassigned) [Example 114, 1-(3-(difluoromethoxy)-4-(1H-pyrazol-4-yl)phenyl)-3-((3-methoxyphenyl)amino)pyrrolidin-2-one], the IC50 was 10 to 100 nM.
COc1cccc(NC2CCN(c3cc(F)c(-c4cn[nH]c4)c(F)c3)C2=O)c1 (single isomer, unassigned) [Example 311, 1-(3,5-difluoro-4-(1H-pyrazol-4-yl)phenyl)-3-((3-methoxyphenyl)amino)pyrrolidin-2-one] showed an IC50 of under 10 nM.
COc1cccc(N(C)C2CCN(c3ccc(-c4cn[nH]c4)cc3)C2=O)c1 (single isomer, unassigned) [Example 30, 1-(4-(1H-pyrazol-4-yl)phenyl)-3-((3-methoxyphenyl)(methyl)amino)pyrrolidin-2-one] gave an IC50 of 10 to 100 nM.
COc1cccc(N(CCO)C2CCN(c3ccc(-c4cn[nH]c4)cc3)C2=O)c1 (stereo not drawn) [Example 12, 1-(4-(1H-pyrazol-4-yl)phenyl)-3-((2-hydroxyethyl)(3-methoxyphenyl)amino)pyrrolidin-2-one] showed an IC50 of 10 to 100 nM.
With COc1cccc(NC2CCN(c3ccc(-c4c[nH]nc4C)c(OC)n3)C2=O)c1 (racemic) [Example 129, 1-(6-methoxy-5-(3-methyl-1H-pyrazol-4-yl)pyridin-2-yl)-3-((3-methoxyphenyl)amino)pyrrolidin-2-one] the IC50 was under 10 nM.
Work on COc1cc(NC2CCN(c3ccc(-c4cn[nH]c4)cc3Cl)C2=O)ccc1F (single isomer, unassigned) [Example 162, 1-(2-chloro-4-(1H-pyrazol-4-yl)phenyl)-3-((4-fluoro-3-methoxyphenyl)amino) pyrrolidin-2-one] yielded an IC50 of 100 to 2200 nM.
For COc1nc(N2CCC(N(C)C3CCN(C)CC3)C2=O)ccc1-c1cn[nH]c1 (racemic) [Example 279, 1-(6-methoxy-5-(1H-pyrazol-4-yl)pyridin-2-yl)-3-(methyl(1-methylpiperidin-4-yl)amino)pyrrolidin-2-one], the IC50 was 100 to 2200 nM.
